Reference: ChEMBL document CHEMBL1142905, “1,4-Bis(alkylamino)benzo[g]phthalazines able to form dinuclear complexes of Cu(II) which as free ligands behave as SOD inhibitors and show efficient in vitro activity against Trypanosoma cruzi” (Bioorg Med Chem, 2007)
Values after ≈ are worked out from the molar mass of the structure shown.

Tests used:
Trypanosoma cruzi [1] = assay: Inhibition of Fe-SOD in Trypanosoma cruzi Maracay at 25 ug/mL
Trypanosoma cruzi [2] = assay: Inhibition of Trypanosoma cruzi Maracay epimastigotes after 48 hrs; type: functional, organism-based
Trypanosoma cruzi [3] = assay: Inhibition of Fe-SOD in Trypanosoma cruzi Maracay at 10 ug/mL
Trypanosoma cruzi [4] = assay: Inhibition of Trypanosoma cruzi Maracay epimastigotes after 24 hrs; type: functional, organism-based
Homo sapiens [5] = species on record: Homo sapiens; assay: Inhibition of Cu-Zn SOD in human erythrocytes at 25 ug/mL; type: cell-based
Trypanosoma cruzi [6] = assay: Inhibition of Fe-SOD in Trypanosoma cruzi Maracay at 1 ug/mL
Homo sapiens [7] = species on record: Homo sapiens; assay: Inhibition of Cu-Zn SOD in human erythrocytes at 1 ug/mL; type: cell-based
[8] = Toxicity against Vero cells after 72 hrs; type: cell-based; conditions: Chlorocebus sabaeus (African green monkey)
Trypanosoma cruzi [9] = assay: Inhibition of Trypanosoma cruzi Maracay epimastigotes after 72 hrs; type: functional, organism-based
Homo sapiens [10] = species on record: Homo sapiens; assay: Inhibition of Cu-Zn SOD in human erythrocytes at 10 ug/mL; type: cell-based
Trypanosoma cruzi [11] = assay: Inhibition of rate of infection with Trypanosoma cruzi Maracay metacyclic form in Vero cells at 5 ug/mL after 8 days; type: functional; conditions: 192 h
Trypanosoma cruzi [12] = assay: Reduction of Trypanosoma cruzi Maracay amastigotes infection in Vero cells at 5 ug/Ml after 8 days relative to control; type: functional; design: scale not given: the % may be the effect or the level left
Trypanosoma cruzi [13] = assay: Inhibition of rate of infection with Trypanosoma cruzi Maracay metacyclic form in Vero cells at 5 ug/mL after 2 days; type: functional; design: scale not given: the % may be the effect or the level left
Trypanosoma cruzi [14] = assay: Reduction of Trypanosoma cruzi Maracay trypomastigote infection in Vero cells; type: functional; design: scale not given: the % may be the effect or the level left

Row | Compound | inhibition (Trypanosoma cruzi [1]) [%] | IC50 (Trypanosoma cruzi [2]) [µg/mL] | inhibition (Trypanosoma cruzi [3]) [%] | IC50 (Trypanosoma cruzi [4]) [µg/mL] | inhibition (Homo sapiens [5]) [%] | inhibition (Trypanosoma cruzi [6]) [%] | inhibition (Homo sapiens [7]) [%] | IC50 at 72 h [8] [µg/mL] | IC50 (Trypanosoma cruzi [9]) [µg/mL] | inhibition (Homo sapiens [10]) [%] | inhibition at 5 µg/mL (Trypanosoma cruzi [11]) [%] | Activity (Trypanosoma cruzi [12]) [%] | Activity (Trypanosoma cruzi [13]) [%] | Activity (Trypanosoma cruzi [14]) [%]
1 | OCCOCCNc1nnc(NCCOCCO)c2cc3ccccc3cc12 | 53 | 62.6 (≈ 162 µM) | 34 | 75.4 (≈ 195 µM) | 0 | 27 | 0 | 93.5 (≈ 242 µM) | 30.6 (≈ 79.2 µM) | 0 |  |  |  | 
2 | c1ccc(COCCCNc2nnc(NCCCOCc3ccccn3)c3cc4ccccc4cc23)nc1 | 75 | 12.8 (≈ 25.3 µM) | 68 | 56.8 (≈ 112 µM) | 11 | 64 | 0 | 6.25 (≈ 12.3 µM) | 3.25 (≈ 6.39 µM) | 7 | 68 | 44 | 35 | 74
3 | O=C(Cn1ccnc1[N+](=O)[O-])NCc1ccccc1 [BENZNIDAZOLE] |  |  |  |  |  |  |  | 3.53 (≈ 13.6 µM) |  |  |  |  |  | 
4 | NCCOCCNc1nnc(NCCOCCN)c2cc3ccccc3cc12 | 100 | 15.6 (≈ 40.6 µM) | 73 |  | 17 | 48 | 0 | 67.3 (≈ 175 µM) | 12 (≈ 31.3 µM) | 11 | 57 | 43 |  | 65
